Source: article PMC9059126, “Structure-Based Design of a Novel Class of Autotaxin Inhibitors Based on Endogenous Allosteric Modulators” (Journal of Medicinal Chemistry, 2022)

Tests used:
ATX [1] = target: T1, ATX (Rattus norvegicus, UniProt Q64610); assay: Choline oxidase-coupled choline-release assay of LPC hydrolysis by ATX; conditions: for IC50 / Residual Activity (%): 20 nM ATX; for inhibition at 100 µM: read-out: %Inhibition at 100 μM
[2] = system: LPA1-HA-expressing HeLa-Flp-In cells; assay: Confocal microscopy for LPA1 internalization; format: cell-based, Human; conditions: 1 μM 18:1 LPC, 20 nM ATX, 15 min
Experimental: Human LPA1 cDNA was amplified by PCR to remove its stop codon and add the restriction sites for BamHI and XhoI, after which it was subcloned in an in-house produced pDNA5.1-HA vector. 0.2 μg of the resulting vector and 1.8 μg of pOG44 Flp-Recombinase Expression Vector (Invitrogen) were incubated with 6 μL of Fugene6 (Invitrogen) in 200 μL of OptiMEM (Gibco) for 30 min, after which the mix was added to previously produced HeLa-Flp-In cells.[43] Their medium was refreshed 24 h later, and selection with 1 μg/mL puromycin was started and maintained with resistant cells.
Serum-starved LPA1-HA-expressing HeLa-Flp-In cells cultured on 24 mm (#1,5) were treated with 1 μM LPC and 20 nM ATX in the presence or absence of 22 or 23 for 15 min in DMEM containing 0.05% fatty acid-free BSA. Subsequently, coverslips were washed and fixed with 4% PFA, permeabilized with 0.1% Triton X-100, and blocked with 2% BSA for 1 h. Incubation with anti-HA antibody (3F10 from Roche Diagnostics; 1:200) was done for 1 h, followed by incubation with donkey anti-rat Alexa Fluor 488-conjugated antibody (A-21208 from Invitrogen; 1:200) for 1 h at room temperature. For confocal microscopy, cells were washed with PBS, mounted with Immnuno-MountTM (Thermo Scientific), visualized on a LEICA TCS-SP5 confocal microscope (63× objective), and analyzed using ImageJ software.

ATX [3] = target: T1, ATX; assay: Competition with LPA allostery (LPA-mediated activation of ATX); format: biochemical; set-up: made in house; conditions: inhibitor at concentrations close to or lower than IC50; 150 μM 18:1 LPC, 18:1 LPA, 20 nM ATX
Experimental: The activation assays using LPA were performed in a similar way to those done for the inhibitors. In this case, LPA was dissolved in ethanol/H20 (1:1) and 0.01% TX-100 and was added to the reaction buffer. The presence of ethanol was taken into account, and controls in the absence of ATX and/or LPC were employed to correct the kinetic data. ATX was incubated for 30 min with different concentrations of inhibitors and subsequently added to the reaction buffer containing 150 μM 18:1 LPC and different starting concentrations of 18:1 LPA. The slopes were calculated from at least 60 min after the addition of ATX. The percentage of LPA-driven activation was normalized to ATX in the absence of LPA and inhibitors, which represented 100% activity. Last, the activation constant or AC50 was obtained from the following equation [drawing 2] 2

BJeH fibroblasts = assay: AKT and ERK phosphorylation by western blotting; format: cell-based; conditions: Homo sapiens, 0.25 h, 15 min
Experimental: 100,000 BJeH cells were seeded in 12-well tissue culture plates and allowed to grow for 24 h in DMEM (GIBCO, Life Technologies) containing 10% FCS (Thermo Scientific) and 100 U mL^–1 streptomycin/penicillin (GIBCO, Life Technologies). Next, they were washed twice with phosphate-buffered saline (PBS) and serum-starved O/N. ATX 20 nM was incubated with inhibitors for 30 min in a serum-free medium containing 0.05% (w/v) fatty acid-free BSA (total volume 1 mL). The medium from the 12-well plates was removed and replaced with 1 mL of the ATX–inhibitor mixture. Cells were stimulated for 15 min, the medium was removed, and plates were immediately frozen on dry ice and stored at −80 °C. For western blotting, cells were washed with cold PBS; lysed in RIPA buffer; supplemented with protease inhibitors (Pierce), 20 mM NaF and 1 mM orthovanadate; and spun down. The protein concentration was measured using a BCA protein assay kit (Pierce), and LDS sample buffer (NuPAGE, Invitrogen) and 1 mM dithiothreitol were added to the lysate. 20 μg of the total protein was loaded on sodium dodecyl sulfate–polyacrylamide gel electrophoresis pre-cast gradient gels (4–12% Nu-Page Bis-Tris, Invitrogen), followed by transfer to a nitrocellulose membrane. Non-specific protein binding was blocked by 5% BSA in PBS-Tween (0.1%); the primary antibodies were phospho-Akt (Ser473), catalogue number: D93, dilution: 1:1,000; phospho-ERK1/2 (Thr202/Tyr204), catalogue number: D13.14.4E, dilution: 1:2,000, from Cell Signaling Technology. They were incubated O/N at 4 °C in PBS–Tween with 5% BSA, containing 0.1% NaN3. Blots were then incubated for 1 h at room temperature with monoclonal anti-β-actin antibody, clone AC-15, dilution: 1:10,000, from Sigma, which was dissolved in PBS–Tween with 5% skimmed milk containing 0.1% NaN3. HRP-conjugated secondary antibodies [goat anti-mouse (Bio-Rad), catalogue number: 1721011; goat anti-rabbit (Pierce), catalogue number: 1858415] were incubated for 1 h at room temperature in PBS–Tween with 2.5% BSA and developed using an ECL Western blot reagent.

ATX [4] = target: T1, ATX; assay: Mechanistic studies: mode of inhibition and Ki from LPC titration; format: biochemical; set-up: made in house
Experimental: The biochemical studies of ATX lysoPLD activity were performed with ATX. Activity was measured by a coupled reaction with 1 U mL^–1 choline oxidase and 2 U mL^–1 horseradish peroxidase (HRP) and 2 mM homovanillic acid (HVA) (all from Sigma-Aldrich). For the assays, 14:0, 16:0, 18:1, and 20:0 LPC (Avanti Polar Lipids Inc.) were incubated with 20 nM ATX, reaching a final volume of 100 μL of the buffer, which contained 50 mM Tris, 0.01%, 50 mM CaCl2, Triton X-100, pH 7.4. Steady-state choline release was measured at 37 °C by HVA fluorescence at λex/λem = 320/460 nm in Corning 96- or 384-well OptiPlate (Sigma-Aldrich) and with a Pherastar plate reader (BMG Labtech). […] The resulting fluorescence intensity signal over time was used to model all inhibitor concentrations simultaneously using the following formula, where vmax and vmin were fitted for the minimum and maximum relative velocities, respectively, and ci corresponds to the inhibitor concentration for each assay[20] [drawing 1] 1
To statistically determine the chance of each type of inhibition, we calculated the α value in the partial mixed inhibition model (eq 5), where Part defines the partiality of the inhibition, and α > 1 or α = 1 correspond to competitive and non-competitive inhibition modes, respectively. Last, we utilized Akaike’s Information Criterion[42] to assess the significance of the analysis [drawing 5] 5

| SMILES | IC50 (ATX [1]; LPC hydrolysis assay) [µM] | Residual Activity (%) (ATX [1]; LPC hydrolysis assay) | further results |
| --- | --- | --- | --- |
| C[C@H](CCC(=O)N1CC[C@H](Oc2ccc(B3OC(C)(C)C(C)(C)O3)cc2)C1)[C@H]1CC[C@H]2C3[C@@H](O)C[C@@H]4C[C@H](O)CC[C@]4(C)[C@H]3CC[C@]12C (stereo partly drawn) [Compound 21] | 0.2 | 10 | – |
| C[C@H](CCC(=O)NCCCOc1ccc(B2OC(C)(C)C(C)(C)O2)cc1)[C@H]1CC[C@H]2C3[C@@H](O)C[C@@H]4C[C@H](O)CC[C@]4(C)[C@H]3CC[C@]12C (stereo partly drawn) [Compound 16] | 0.07 | 0.3 | – |
| COc1ccc(B(O)O)cc1 [Compound 7] | – | – | inhibition at 100 µM (ATX [1]): 37% |
| C[C@H](CCC(=O)N1CC[C@@H](Oc2ccc(B3OC(C)(C)C(C)(C)O3)cc2)C1)[C@H]1CC[C@H]2C3[C@@H](O)C[C@@H]4C[C@H](O)CC[C@]4(C)[C@H]3CC[C@]12C (stereo partly drawn) [Compound 20] | 0.21 | 8 | – |
| C[C@H](CCC(=O)NCCOc1cccc(B2OC(C)(C)C(C)(C)O2)c1)[C@H]1CC[C@H]2C3[C@@H](O)C[C@@H]4C[C@H](O)CC[C@]4(C)[C@H]3CC[C@]12C (stereo partly drawn) [Compound 13] | 14 | 14.7 | – |
| C[C@H](CCC(=O)NCCCOc1ccc(S(N)(=O)=O)cc1)[C@H]1CC[C@H]2C3[C@@H](O)C[C@@H]4C[C@H](O)CC[C@]4(C)[C@H]3CC[C@]12C (stereo partly drawn) [Compound 10] | 0.4 | 75 | – |
| C[C@H](CCC(=O)NCCOc1ccc(S(N)(=O)=O)cc1)[C@H]1CC[C@H]2C3[C@@H](O)C[C@@H]4C[C@H](O)CC[C@]4(C)[C@H]3CC[C@]12C (stereo partly drawn) [Compound 11] | > 10 | 31 | – |
| C[C@H](CCC(=O)NCCCOc1cccc(B2OC(C)(C)C(C)(C)O2)c1)[C@H]1CC[C@H]2C3[C@@H](O)C[C@@H]4C[C@H](O)CC[C@]4(C)[C@H]3CC[C@]12C (stereo partly drawn) [Compound 15] | 0.15 | 1.7 | – |
| C[C@H](CCC(=O)N1CCC(Oc2ccc(B3OC(C)(C)C(C)(C)O3)cc2)CC1)[C@H]1CC[C@H]2C3[C@@H](O)C[C@@H]4C[C@H](O)CC[C@]4(C)[C@H]3CC[C@]12C (stereo partly drawn) [Compound 19] | 0.08 | 0 | – |
| C[C@H](CCC(=O)NCCCOc1ccc(B(O)O)cc1)[C@H]1CC[C@H]2C3[C@@H](O)C[C@@H]4C[C@H](O)CC[C@]4(C)[C@H]3CC[C@]12C (stereo partly drawn) [Compound 18] | 0.05 | 0.6 | – |
| C[C@H](CCC(=O)NCCCOc1ccc([B-](F)(F)F)cc1)[C@H]1CC[C@H]2C3[C@@H](O)C[C@@H]4C[C@H](O)CC[C@]4(C)[C@H]3CC[C@]12C.[Na+] (stereo partly drawn) [Compound 17] | 0.07 | 1.1 | – |
| C[C@H](CCC(=O)NCCCCOc1ccc(S(N)(=O)=O)cc1)[C@H]1CC[C@H]2C3[C@@H](O)C[C@@H]4C[C@H](O)CC[C@]4(C)[C@H]3CC[C@]12C (stereo partly drawn) [Compound 12] | > 10 | 66 | – |
| C[C@H](CCC(=O)N1CCC(Oc2ccc([B-](F)(F)F)cc2)CC1)[C@H]1CC[C@H]2C3[C@@H](O)C[C@@H]4C[C@H](O)CC[C@]4(C)[C@H]3CC[C@]12C.[K+] (stereo partly drawn) [Compound 22] | 0.05 | 0 | decrease of LPA1 internalization [2]: approximately 75%; IC50 (ATX [1]; 14:0 LPC, 150 μM LPC): 0.084 µM; Residual Activity (%) (ATX [1]; 14:0 LPC, 150 μM LPC): 1%; IC50 (ATX [1]; 16:0 LPC, 150 μM LPC): 0.072 µM; Residual Activity (%) (ATX [1]; 16:0 LPC, 150 μM LPC): 12%; IC50 (ATX [1]; 18:1 LPC, 150 μM LPC): 0.045 µM; Residual Activity (%) (ATX [1]; 18:1 LPC, 150 μM LPC): 5%; IC50 (ATX [1]; 20:0 LPC, 150 μM LPC): 0.032 µM; Residual Activity (%) (ATX [1]; 20:0 LPC, 150 μM LPC, % of catalytic rate of inhibitor-free control): 49%; LPA-mediated activation of ATX activity (ATX [3]): dose-dependent decrease; EC50 (BJeH fibroblasts; BJeH cells, 20 nM ATX, 1 μM 18:1 LPC, read-out: EC50 (P-AKT and P-ERK levels)): ~0.1 µM; Emax (BJeH fibroblasts; BJeH, compared to uninhibited ATX incubated with LPC, read-out: reduction of maximal effective cell response (P-AKT and P-ERK)): ~60%; percentage of competitive versus non-competitive inhibition (ATX [4]; Akaike's informative criteria): 99%; mode of inhibition (ATX [4]; LPC hydrolysis): competitive; Ki (ATX [4]; LPC titration at increasing inhibitor concentrations, Michaelis-Menten nonlinear regression): 0.024 ± 0.004 µM; α (partial mixed inhibition model) (ATX [4]; α > 1 competitive, α = 1 non-competitive): 9.7 |
| COc1ccc([B-](F)(F)F)cc1 [Compound 6] | – | – | inhibition at 100 µM (ATX [1]): 57% |
| C[C@H](CCC(=O)NCCOc1ccc(B2OC(C)(C)C(C)(C)O2)cc1)[C@H]1CC[C@H]2C3[C@@H](O)C[C@@H]4C[C@H](O)CC[C@]4(C)[C@H]3CC[C@]12C (stereo partly drawn) [Compound 14] | 1.5 | 1.4 | fold increase in potency over meta-substituted pinacol boronate 13 (ATX [1]; ethyl-linked, para against meta): 10 fold |
